Active and inactive are the calls of the source. The calls are words filed in the database; no cut-off is given here.
Key:
[1] = Toxicity in hormone-independent human MDA-MB-231 cells assessed as growth inhibition incubated for 4 day s by crystal violet assay; assay type: cell-based
MCF7 [2] = assay: Down regulation of ERalpha human MCF7 cells at 10 uM by Western blotting; assay type: functional, cell-based
[3] = biological target: T1, Estrogen receptor (Homo sapiens) (UniProt P03372); assay: Antagonist activity at ERalpha in human MCF7/2a cells assessed as reduction in 1 nM estradiol-induced receptor activation by luciferase reporter gene assay relative to untreated control; assay type: functional, cell-based
T1 sequence (whole entry): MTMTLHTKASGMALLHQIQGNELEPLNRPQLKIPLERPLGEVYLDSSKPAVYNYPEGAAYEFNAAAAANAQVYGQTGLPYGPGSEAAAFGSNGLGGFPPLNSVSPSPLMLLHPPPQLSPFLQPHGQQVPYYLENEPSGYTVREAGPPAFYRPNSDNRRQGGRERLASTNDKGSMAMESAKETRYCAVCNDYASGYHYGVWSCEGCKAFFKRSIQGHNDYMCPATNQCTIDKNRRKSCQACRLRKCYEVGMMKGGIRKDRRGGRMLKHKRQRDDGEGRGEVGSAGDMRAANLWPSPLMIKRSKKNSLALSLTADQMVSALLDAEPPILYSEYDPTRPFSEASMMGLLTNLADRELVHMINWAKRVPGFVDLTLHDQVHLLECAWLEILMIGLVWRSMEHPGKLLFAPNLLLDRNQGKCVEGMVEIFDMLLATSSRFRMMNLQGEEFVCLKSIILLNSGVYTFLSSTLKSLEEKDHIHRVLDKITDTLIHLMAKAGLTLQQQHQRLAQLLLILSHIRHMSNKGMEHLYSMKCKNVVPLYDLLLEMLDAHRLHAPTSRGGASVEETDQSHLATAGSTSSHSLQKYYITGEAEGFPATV

MCF7 [4] = assay: Stimulation of cell growth in human MCF7 cells incubated for 20 to 100 hrs by crystal violet assay; assay type: cell-based
MCF7 [5] = assay: Cytotoxicity in hormone-dependent human MCF7 cells assessed as growth inhibition incubated for 4 day s by crystal violet assay; assay type: functional, cell-based; conditions: MCF7, 96 h
Estrogen receptor [6] = biological target: T2, Estrogen receptor (Homo sapiens, UniProt P03372); assay: Activation of human ERalpha expressed in human U2-OS cells by luciferase reporter gene assay relative to untreated control; assay type: cell-based, U2OS
T2 sequence (P03372 whole entry): T1 sequence (whole entry)

Estrogen receptor [7] = biological target: T2, Estrogen receptor; assay: Activation of ERalpha in human MCF7/2a cells by luciferase reporter gene assay relative to untreated control; assay type: cell-based
[8] = Chemical stability in pH 7.3 PBS buffer at 10 uM at 37 degC; assay type: physicochemical
[9] = biological target: T1, Estrogen receptor (Homo sapiens); assay: Activation of ERalpha in human MCF7/2a cells pre-exposed to compound 1 to 3 hrs before 0.1 uM 4-OHT addition by luciferase reporter gene assay relative to untreated control; assay type: cell-based
[10] = biological target: T1, Estrogen receptor (Homo sapiens); assay: Activation of ERalpha in human MCF7/2a cells in presence of 0.1 uM 4-OHT by luciferase reporter gene assay relative to untreated control; assay type: cell-based

Row | Structure (SMILES) | IC50 at 4 days [1] [nM] | Activity (MCF7 [2]) | Activity [3] | Activity (MCF7 [4]) | IC50 (MCF7 [5]) [nM] | EC50 (Estrogen receptor [6]) [nM] | EC50 (Estrogen receptor [7]) [nM] | half-life at 10 µM [8] [days] | Activity [9] | Activity [10]
1 | CCCn1c(-c2ccc(O)cc2F)cc(-c2ccc(O)cc2F)c1-c1ccc(O)cc1F | 21900 | Active | inactive | Non-toxic | 5600 | 0.2 | 23 | 44 | – | –
2 | Cn1c(-c2ccc(O)cc2F)cc(-c2ccc(O)cc2)c1-c1ccc(O)cc1F | – | Active | inactive | Non-toxic | 8500 | 15 | 290 | – | – | –
3 | CCCn1c(-c2ccc(O)cc2Cl)cc(-c2ccc(O)cc2)c1-c1ccc(O)cc1 | – | Active | inactive | – | – | 47 | – | 61.4 | – | –
4 | Cn1c(-c2ccc(O)cc2Cl)cc(-c2ccc(O)cc2)c1-c1ccc(O)cc1 | – | inactive | inactive | – | 23800 | 100 | – | – | – | –
5 | CCCn1c(-c2ccc(O)cc2)cc(-c2ccc(O)cc2F)c1-c1ccc(O)cc1 | – | Active | inactive | – | – | 0.84 | 26 | – | – | –
6 | CCCn1c(-c2ccc(O)cc2F)cc(-c2ccc(O)cc2)c1-c1ccc(O)cc1 | – | Active | inactive | – | – | 0.67 | 240 | – | – | –
7 | CCCn1c(-c2ccc(O)cc2F)cc(-c2ccc(O)cc2)c1-c1ccc(O)cc1F | 20900 | Active | inactive | – | – | 0.27 | 30 | – | Active | inactive
8 | CCCn1c(-c2ccc(O)cc2)cc(-c2ccc(O)cc2)c1-c1ccc(O)cc1F | – | Active | inactive | – | – | 0.12 | 70 | 31 | – | –
9 | CCCn1c(-c2ccc(O)cc2)cc(-c2ccc(O)cc2)c1-c1ccc(O)cc1 | – | – | – | – | – | 0.4 | 50 | 10.7 | Active | inactive
10 | Cn1c(-c2ccc(O)cc2F)cc(-c2ccc(O)cc2)c1-c1ccc(O)cc1 | – | inactive | inactive | – | 25500 | 24 | – | – | – | –
11 | CCCn1c(-c2ccc(O)cc2)cc(-c2ccc(O)cc2)c1-c1ccc(O)cc1Cl | – | Active | inactive | – | – | 0.31 | 63 | – | – | –
12 | CCCc1c(-c2ccc(O)cc2)cn(-c2ccc(O)cc2)c1-c1ccc(O)cc1 | – | – | – | – | – | 1.6 | 70 | 7.04 | Active | inactive
13 | Cn1c(-c2ccc(O)cc2)cc(-c2ccc(O)cc2)c1-c1ccc(O)cc1F | – | inactive | inactive | – | 24700 | 60 | – | – | – | –
14 | CCCc1c(-c2ccc(O)cc2)nn(-c2ccc(O)cc2)c1-c1ccc(O)cc1 [PROPYLPYRAZOLETRIOL] | – | Active | – | – | 27200 | 0.1 | 3 | – | – | –
15 | Cn1c(-c2ccc(O)cc2)cc(-c2ccc(O)cc2)c1-c1ccc(O)cc1Cl | – | Active | inactive | – | 19100 | 16 | 600 | – | – | –
